Data taken from PubChem BioAssay (NCI).
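Exposure lasted 48 hours, with cells grown in 96-well plates and compounds tested at five concentrations. At the GI50, growth is halved. TGI: total growth inhibition.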

Each molecule was assayed on MDA-MB-468 breast (assay: growth of human tumour cells (NCI), 48 h).

| SMILES | GI50 | TGI |
| --- | --- | --- |
| Cc1ccc(O)cc1Nc1ccnc2cc(-c3ccccn3)ccc12 | 0.736 µM | 3.57 µM |
| N#Cc1cccc(C2C3=C(COC3=O)N(CCO)c3cc4c(cc32)CCC4)c1 (configuration not stated) | 0.115 µM |  |
| Oc1c(I)cc(Cl)c2cccnc12 | 2.05 µM | 5.13 µM |
| CC1(C)N=C(N)N=C(N)N1c1ccc(OCCCCNC(=O)Nc2cccc(S(=O)(=O)F)c2)c(Cl)c1 | 3.47 µM | > 100 µM |
| C=C(C)[C@@H]1CC[C@]2(C(=O)n3ccnc3)CC[C@]3(C)[C@H](CC[C@@H]4[C@@]5(C)CCCNC(C)(C)[C@@H]5CC[C@]43C)[C@@H]12 | 1.9 µM | 3.53 µM |
| CCc1ccc(C2=NN(c3ccc(S(C)(=O)=O)cc3)C(=O)CC2)cc1 | 4.43 µM | 43.7 µM |
| CN(C)CCS(=O)(=O)Nc1cc(-c2ccc3ncnc(Nc4ccc(F)c(Cl)c4)c3c2)cnc1Cl | 0.133 µM | 0.449 µM |
| Nc1n[nH]c2ccc([C@@H]3Nc4c(F)cc5[nH]ncc5c4[C@H]4C5CCC(C5)[C@@H]34)cc12 (some centres not stated) | 0.116 µM | 0.621 µM |
| CCN(CC)C(=S)SSCCO | 15 µM | 28.9 µM |
| Cc1ccc(-c2nc(C(Cl)Cl)nc3cc(C)nn23)cc1 | 0.259 µM | 0.957 µM |
| Cc1ccc(NC2=CC(=O)C(=O)c3ccccc32)c(C)c1 | 2.56 µM | 8.61 µM |
| O=C(Nc1nc2c(s1)CCc1c-2c(Br)n(Cc2ccccc2)c1Br)c1ccccc1 | 8.28 µM | > 100 µM |
| CN(C)c1ccc2c(c1)OC(N)=C(C#N)C2c1ccc2c(c1)CCCN2C (configuration not stated) | 1.62 µM | 42.5 µM |
| Nc1c(C(=O)Nc2ccccn2)sc2nc3c(cc12)CCCCCC3 | 0.435 µM | 7.13 µM |
| O=C(Nc1cccc(-n2cc(-c3ccncc3)c(-c3ccc(O)c(Cl)c3)n2)c1)Nc1ccc(Cl)c(Cl)c1 | 1.96 µM | 6.65 µM |
| CCN(CCNc1ccc(C)c2sc3cc(Cl)ccc3c(=O)c12)CC(C)(C)O | 3.49 µM | 10.4 µM |
| C=CC[PH+](c1ccccc1)c1ccccc1.C=CC[PH+](c1ccccc1)c1ccccc1.[Pt+2].[S-]c1ncccn1.[S-]c1ncccn1 | 3.06 µM | 13.9 µM |
| Cc1cc(-c2ccco2)cc(C)c1/C=C/c1cncc(-c2nn[nH]n2)c1 | > 25 µM | > 25 µM |
| CS(=O)(=O)c1ccc2c(c1)c1c(n2C(=O)c2ccc(Cl)cc2)CCCC1 | 2.09 µM | > 100 µM |
| O=S(=O)(NCCCNc1nccc(-c2c(-c3cccc(F)c3)nc3occn23)n1)c1cccc2ccccc12 | 4.86 µM | > 100 µM |
| CCN(CC)CCS(=O)(=O)CCNc1ccnc2cc(Cl)ccc12 | 0.711 µM | 1.91 µM |
| CC/C(=C(/c1ccc(/C=C/C(=O)O)cc1)c1ccc2[nH]ncc2c1)c1ccc(F)cc1Cl | 15.1 µM | 42.8 µM |

| SMILES | GI50 | TGI |
| --- | --- | --- |
| COc1cc(/C=N/Nc2ccnc3cc(Cl)ccc23)cc(OC)c1O | 1.65 µM | 3.28 µM |
| Nc1ccn([C@@H]2S[C@H](CO)[C@@H](O)[C@@H]2F)c(=O)n1 | 3.25 µM | > 88.6 µM |
| CCN(CC)CCCNc1c2ccc(Cl)cc2nc2ccc(OC)cc12 | 0.0711 µM | 2.71 µM |
| CCOC(=O)c1cc2cc(OCc3ccccc3)ccc2[nH]1 | > 100 µM | > 100 µM |
| Cc1n(Cc2ccc3ccccc3n2)cc[n+]1Cc1ccc2ccccc2c1 | 0.27 µM | 1.58 µM |
| COC(=O)C1=Nc2ccc(F)cc2/C1=C/c1sc(=S)[nH]c1O | 0.354 µM | 2.95 µM |
| Oc1ccc(-c2[nH]c3ccccc3c2-c2nc3ccccc3o2)cc1 | 1.36 µM | 5.98 µM |
| O=C1C2C(C(=O)N1CC[Se][Se]CCN1C(=O)C3C(C1=O)[C@H]1C=C[C@@H]3C1)[C@H]1C=C[C@@H]2C1 (some centres not stated) | 0.324 µM | 1.32 µM |
| COc1ncc2cc1NS(=O)(=O)c1cccc(c1)C(=O)NCC1=CC=C(S1)c1ncnc3c1SC2=C3C | 0.072 µM | 0.234 µM |
| CN(c1ccc(NC(=O)NCCN2CCOCC2)cc1)c1ccnc(Nc2ccc(CS(C)(=O)=O)cc2)n1 | 8.21 µM | > 25 µM |
| CC(C)C/C(=N\NC(=O)c1ccncc1)c1cc(Cl)ccc1O | 0.288 µM | 1.97 µM |
| Cc1nn2c(-c3nc4cc(Cl)c(Cl)cc4[nH]3)c(-c3ccc(F)cc3)nc2s1 | > 29.1 µM | > 100 µM |
| O=C(/C=C/c1cccc(Oc2ccc(Cl)cc2)c1)c1ccccc1 | 101 µM | 338 µM |
| OC(c1cc(-c2ccc(Cl)cc2)nc2c(Cl)cccc12)C1CCCCN1 (configuration not stated) | 1.74 µM | 3.26 µM |
| CCc1c(C#N)c(SC(C(N)=O)c2ccccc2)nc(N2CCC(N)CC2)c1C#N (configuration not stated) | 3.53 µM | 16.4 µM |
| N=C(N)c1ccc(OCCCCCOc2ccc(C(=N)N)cc2)cc1 | 0.466 µM | 5.83 µM |
| CCN(CC)C(=O)CCCCCn1c2ccccc2c2c3c(c4c5ccccc5[nH]c4c21)C(=O)N(O)C3=O | 5.79 µM | > 100 µM |
| CCOc1cc2c(cc1O)CC[C@@H]1[C@@H]2CC[C@]2(C)[C@@H](O)CC[C@@H]12 | 4.96 µM | 31.8 µM |
| CCN(CC)Cc1cc(Nc2cc(C(F)(F)F)c(C#N)c3nc4ccccc4n23)ccc1O | 0.228 µM | 3.69 µM |
| Cc1ccc(C(=O)N2C/C(=C/c3ccccc3)C(=O)/C(=C/c3ccccc3)C2)cc1 | 2.23 µM | 10.7 µM |
| Cc1ccccc1CNc1c2ccccc2nc2ccccc12 | 1.88 µM | 4.89 µM |
| COc1cc(OC)c(/C=C/C(=O)c2c(N)cc(OC)cc2OC)c(OC)c1 | 0.322 µM | 7.26 µM |
